{
  "source": "patent US11130759B1",
  "about": "“2-oxoquinazoline derivatives as methionine adenosyltransferase 2A inhibitors” (IDEAYA BIOSCIENCES, INC., priority 2018, dated 2021)",
  "biological_target": "Human MAT2A (Homo sapiens (Human), UniProt P31153)",
  "sequence (P31153 whole entry)": "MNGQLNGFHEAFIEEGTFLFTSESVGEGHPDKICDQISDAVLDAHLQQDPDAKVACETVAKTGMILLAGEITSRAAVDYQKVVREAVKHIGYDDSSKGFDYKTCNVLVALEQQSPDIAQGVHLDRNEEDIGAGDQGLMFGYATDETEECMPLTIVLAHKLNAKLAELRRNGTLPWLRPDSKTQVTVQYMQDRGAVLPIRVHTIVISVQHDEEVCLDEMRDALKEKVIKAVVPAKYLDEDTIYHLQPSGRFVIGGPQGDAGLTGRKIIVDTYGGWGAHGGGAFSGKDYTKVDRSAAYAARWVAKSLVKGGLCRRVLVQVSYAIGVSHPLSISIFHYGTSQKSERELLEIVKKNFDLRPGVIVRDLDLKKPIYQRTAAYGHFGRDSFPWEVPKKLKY",
  "assay": "Phosphate Sensor Fluorescence Assay (MAT2A enzyme inhibition)",
  "format": "biochemical",
  "settings": "L-methionine 500 uM, ATP 500 uM",
  "protocol": "The ability of the compound of present disclosure to inhibit MAT2A enzyme was determined using the Malachite Green or Phosphate Sensor Fluorescence Assay described below.\nB. Phosphate Sensor Fluorescence Assay\nMAT2A enzyme is incubated with a test compound in DMSO or DMSO and its substrates (L-methionine and ATP) in a microtiter plate. The enzymatic reaction is stopped by the addition of Working Phosphate Sensor Mixture. The plate is analyzed for fluorescence at 450 nm.\nAssay Buffer: 50 mM Tris, pH 7.5/50 mM KCl/10 mM MgCl2/0.01% Brij-35/1 mM DTT/0.1% BGG/40 nM PNP/6 uM 7-MEG\nL-methionine: 500 uM before the addition of Working Phosphate Sensor Mixture\nATP: 500 uM before the addition of Working Phosphate Sensor Mixture\nTest compounds or DMSO were added to the appropriate well suing D300e digital dispenser. 5 μl/well of Assay Buffer was added to the wells corresponding to the negative control and 5 μl/well of MAT2A was added to all the wells except for those corresponding to the negative control. After incubating the plate at room temperature for 15 minutes, 5 μl/well of the 1 mM L-methionine/1 mM ATP mixture was added to all wells. The plate was centrifuged at 1000 rpm for 1 minute and then incubated at room temperature for 1 hour. 5 μl of the Working Phosphate Sensor Mixture was added to all wells and the plate was centrifuged at 1000 rpm for 1 minute. The plate was read for fluorescence at 450 nm after exciting at 430 nm.\nPercent inhibition was calculated in Chemical and Biological Information System (CBIS), (ChemInnovation Software Inc.). Curves were fitted by CBIS as % inhibition vs. log [compound concentration] using a 4-parameter inhibition model. Fit=(A+((B−A)/(1+((C/x)^D)))) Res=(y−fit)",
  "data": [
    {"compound": "8-chloro-1-(2-chlorophenyl)-7- (trifluoro-methyl)pyrido[2,3- d]pyrimidine-2,4(1H,3H)-dione-1 [Example 360]", "values": [
      {"measurement": "IC50", "setting": "numeric bound", "result": "> 10000", "unit": "nM"}
    ]},
    {"compound": "CCCc1ccc2c(N(C)C)nc(=O)n(-c3ccccc3)c2c1", "note": "[compound 98]", "values": [
      {"measurement": "IC50", "setting": "class symbols", "result": "< 200", "unit": "nM"}
    ]},
    {"compound": "O=c1nc(N2CC[C@@H](O)C2)c2ccc(Cl)cc2n1-c1ccccc1O", "note": "[compound 152]", "values": [
      {"measurement": "IC50", "setting": "class symbols", "result": "< 200", "unit": "nM"}
    ]}
  ]
}
